Results published in patent US20150297606A1, “Tricyclic Lactams for Use in the Protection of Hematopoietic Stem and Progenitor Cells Against Ionizing Radiation” (G1 THERAPEUTICS, INC., priority 2014, published 2015).

What was measured:
CDK5/p35 = CDK5/p35 (Homo sapiens, UniProt Q00535); experiment: CDK5/p35 kinase assay (Nanosyn, Caliper microfluidic); type: biochemical; settings: 12-point dose-response, ATP 20 μM (Km), 3 hr; read-out: Inhibition of CDK kinases: Cdk5/p35
Method: (§1) Selected compounds disclosed herein were tested in CDK4/cyclinD1, CDK6/CycD3, CDK2/CycA, CDK2/cyclinE, CDK5/p25, CDK5/p35, CDK7/CycH/MAT1, and CDK9/CycT kinase assays by Nanosyn (Santa Clara, Calif.) to determine their inhibitory effect on these CDKs. The assays were performed using microfluidic kinase detection technology (Caliper Assay Platform). The compounds were tested in 12-point dose-response format in singlicate at Km for ATP. Phosphoacceptor substrate peptide concentration used was 1.25 μM for all assays (except […] was used for the CKD7/CycH/MAT1 assay and Staurosporine was used as the reference compound for all assays. Specifics of each assay are as described below:
CDK5/p35: Enzyme concentration: 0.07 nM; ATP concentration: 20 μM; Incubation time: 3 hr.

CDK2/CyclinE = CDK2/CyclinE (Homo sapiens, UniProt P24941); experiment: CDK2/cyclinE kinase assay (Nanosyn, Caliper microfluidic); type: biochemical; settings: read-out: Inhibition of CDK kinases: Cdk2/CycE
Method: as §1
CDK2/CyclinE: Enzyme concentration: 0.2 nM; ATP concentration: 100 μM; Incubation time: 3 hr.

CDK5/p25 = CDK5/p25 (Homo sapiens, UniProt Q00535); experiment: CDK5/p25 kinase assay (Nanosyn, Caliper microfluidic); type: biochemical; settings: 12-point dose-response, ATP 20 μM (Km), 3 hr; read-out: Inhibition of CDK kinases: Cdk5/p25
Method: as §1
CDK5/p25: Enzyme concentration: 0.1 nM; ATP concentration: 20 μM; Incubation time: 3 hr.

CDK9/CycT = CDK9/CycT (Homo sapiens, UniProt P50750); experiment: CDK9/CycT kinase assay (Nanosyn, Caliper microfluidic); type: biochemical; settings: read-out: Inhibition of CDK kinases: Cdk9/Cyc T
Method: as §1
CDK9/CycT: Enzyme concentration: 5 nM; ATP concentration: 10 μM; Incubation time: 17 hr.

CDK4/CyclinD1 = CDK4/CyclinD1 (Homo sapiens, UniProt P11802); experiment: CDK4/cyclinD1 kinase assay (Nanosyn, Caliper microfluidic); type: biochemical; settings: 12-point dose-response, ATP 200 μM (Km), 3 hr; read-out: Inhibition of CDK kinases: Cdk4/CycD1
Method: as §1
CDK4/CyclinD1: Enzyme concentration: 1 nM; ATP concentration: 200 μM; Incubation time: 3 hr.

CDK2/CyclinA = CDK2/CyclinA (Homo sapiens, UniProt P24941); experiment: CDK2/CycA kinase assay (Nanosyn, Caliper microfluidic); type: biochemical; settings: 12-point dose-response, ATP 50 μM (Km), 3 hr; read-out: Inhibition of CDK kinases: Cdk2/CycA
Method: as §1
CDK2/CyclinA: Enzyme concentration: 0.2 nM; ATP concentration: 50 μM; Incubation time: 3 hr.

CDK6/CyclinD3 = CDK6/CyclinD3 (Homo sapiens, UniProt Q00534); experiment: CDK6/CycD3 kinase assay (Nanosyn, Caliper microfluidic); type: biochemical; settings: 12-point dose-response, ATP 300 μM (Km), 3 hr; read-out: Inhibition of CDK kinases: Cdk6/CycD3
Method: as §1
CDK6/CyclinD3: Enzyme concentration: 10 nM; ATP concentration: 300 μM; Incubation time: 3 hr.

CDK7/CycH/MAT1 = CDK7/CycH/MAT1 (Homo sapiens, UniProt P50613); experiment: CDK7/CycH/MAT1 kinase assay (Nanosyn, Caliper microfluidic); type: biochemical; settings: 12-point dose-response, ATP 50 μM (Km), 3 hr; read-out: Inhibition of CDK kinases: Cdk7/CycH/MAT1
Method: as §1
CDK7/CycH/MAT1: Enzyme concentration: 5 nM; ATP concentration: 50 μM; Incubation time: 3 hr.

[1] = test system: CDK4/6-dependent cell lines; settings: cited from earlier work
[2] = Grade 3/4 neutropenia and leukopenia, clinical trial; cited from earlier work

CDK7/CycH/MAT1, sequence (P50613 whole entry, species assumed): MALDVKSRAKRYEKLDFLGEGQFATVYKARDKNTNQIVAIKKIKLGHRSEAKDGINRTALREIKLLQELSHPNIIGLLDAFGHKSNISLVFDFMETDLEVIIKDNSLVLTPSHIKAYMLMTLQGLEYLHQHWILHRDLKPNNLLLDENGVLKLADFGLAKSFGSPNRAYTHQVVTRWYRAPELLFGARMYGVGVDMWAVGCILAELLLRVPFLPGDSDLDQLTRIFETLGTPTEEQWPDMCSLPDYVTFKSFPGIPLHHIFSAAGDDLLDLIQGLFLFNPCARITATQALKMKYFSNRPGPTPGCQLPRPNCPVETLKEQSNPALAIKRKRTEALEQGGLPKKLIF
CDK7/CycH/MAT1, sequence (P51946 whole entry partner, species assumed): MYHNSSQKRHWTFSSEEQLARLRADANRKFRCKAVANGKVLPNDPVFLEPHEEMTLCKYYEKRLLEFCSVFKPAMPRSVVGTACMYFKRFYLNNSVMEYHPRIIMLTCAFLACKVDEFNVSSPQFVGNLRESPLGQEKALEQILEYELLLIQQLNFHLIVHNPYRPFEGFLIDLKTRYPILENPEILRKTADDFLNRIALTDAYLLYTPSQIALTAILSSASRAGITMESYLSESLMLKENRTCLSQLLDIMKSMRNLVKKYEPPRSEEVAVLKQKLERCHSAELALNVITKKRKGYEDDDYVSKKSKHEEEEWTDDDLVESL
CDK7/CycH/MAT1, sequence (P51948 whole entry partner, species assumed): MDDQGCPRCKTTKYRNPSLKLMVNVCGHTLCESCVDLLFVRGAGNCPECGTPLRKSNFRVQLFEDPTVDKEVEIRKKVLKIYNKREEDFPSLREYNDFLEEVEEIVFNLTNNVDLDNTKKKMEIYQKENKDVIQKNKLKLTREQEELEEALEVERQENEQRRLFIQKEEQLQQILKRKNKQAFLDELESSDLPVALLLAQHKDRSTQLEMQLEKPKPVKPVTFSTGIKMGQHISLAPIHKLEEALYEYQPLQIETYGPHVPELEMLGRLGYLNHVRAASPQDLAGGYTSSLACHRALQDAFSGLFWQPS
CDK9/CycT, sequence (P50750 whole entry, species assumed): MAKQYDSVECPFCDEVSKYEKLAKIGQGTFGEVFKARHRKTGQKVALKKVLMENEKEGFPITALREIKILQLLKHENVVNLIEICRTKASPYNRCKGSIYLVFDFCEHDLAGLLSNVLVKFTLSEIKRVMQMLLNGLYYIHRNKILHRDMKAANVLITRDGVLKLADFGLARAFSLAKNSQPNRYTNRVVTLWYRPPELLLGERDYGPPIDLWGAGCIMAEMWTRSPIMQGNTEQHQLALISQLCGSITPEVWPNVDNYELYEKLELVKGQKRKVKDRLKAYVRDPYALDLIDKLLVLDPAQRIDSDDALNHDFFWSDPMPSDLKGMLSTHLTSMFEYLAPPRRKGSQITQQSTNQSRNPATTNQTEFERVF
CDK9/CycT, sequence (O60563 whole entry partner, species assumed): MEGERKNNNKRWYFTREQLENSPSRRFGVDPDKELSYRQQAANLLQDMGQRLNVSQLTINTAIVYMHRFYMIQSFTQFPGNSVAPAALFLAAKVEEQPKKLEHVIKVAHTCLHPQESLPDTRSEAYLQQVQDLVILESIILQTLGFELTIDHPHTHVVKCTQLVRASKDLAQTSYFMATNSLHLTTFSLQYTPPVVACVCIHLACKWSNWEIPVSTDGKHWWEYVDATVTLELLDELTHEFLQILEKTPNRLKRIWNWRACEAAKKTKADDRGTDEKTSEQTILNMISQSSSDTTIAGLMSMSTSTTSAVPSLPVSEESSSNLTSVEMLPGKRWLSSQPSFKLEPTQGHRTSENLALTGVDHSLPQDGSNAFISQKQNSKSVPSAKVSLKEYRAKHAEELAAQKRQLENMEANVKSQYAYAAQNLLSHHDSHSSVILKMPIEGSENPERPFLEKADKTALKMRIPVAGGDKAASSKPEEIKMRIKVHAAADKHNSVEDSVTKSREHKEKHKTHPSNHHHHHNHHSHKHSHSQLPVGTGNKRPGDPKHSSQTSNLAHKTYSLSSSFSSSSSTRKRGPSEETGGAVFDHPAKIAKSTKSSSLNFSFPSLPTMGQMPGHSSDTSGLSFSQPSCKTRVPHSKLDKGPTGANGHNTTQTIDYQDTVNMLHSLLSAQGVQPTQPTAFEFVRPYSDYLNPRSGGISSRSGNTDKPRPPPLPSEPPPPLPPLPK
CDK5/p35, sequence (Q00535 whole entry, species assumed): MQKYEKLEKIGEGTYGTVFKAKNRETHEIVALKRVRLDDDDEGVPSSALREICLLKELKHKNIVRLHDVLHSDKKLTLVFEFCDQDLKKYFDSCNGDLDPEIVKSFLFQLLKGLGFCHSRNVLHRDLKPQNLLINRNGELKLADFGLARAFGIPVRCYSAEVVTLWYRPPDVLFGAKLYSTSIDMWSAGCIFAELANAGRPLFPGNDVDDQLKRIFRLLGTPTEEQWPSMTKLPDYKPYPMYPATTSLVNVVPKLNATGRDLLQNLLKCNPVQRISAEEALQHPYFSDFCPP
CDK5/p35, sequence (Q15078 whole entry partner, species assumed): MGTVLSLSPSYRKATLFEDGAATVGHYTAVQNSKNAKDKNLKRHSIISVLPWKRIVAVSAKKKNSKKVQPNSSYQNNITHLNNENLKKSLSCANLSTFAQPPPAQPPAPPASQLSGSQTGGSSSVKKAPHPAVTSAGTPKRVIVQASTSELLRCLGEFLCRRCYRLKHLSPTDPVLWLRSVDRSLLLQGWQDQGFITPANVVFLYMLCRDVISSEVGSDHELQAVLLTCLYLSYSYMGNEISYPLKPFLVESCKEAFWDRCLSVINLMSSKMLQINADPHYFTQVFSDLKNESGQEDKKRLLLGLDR
CDK5/p25, sequence (Q00535 whole entry, species assumed): as the sequence (Q00535 whole entry, species assumed) above
CDK5/p25, sequence (Q15078 99-307 partner limits assumed, species assumed): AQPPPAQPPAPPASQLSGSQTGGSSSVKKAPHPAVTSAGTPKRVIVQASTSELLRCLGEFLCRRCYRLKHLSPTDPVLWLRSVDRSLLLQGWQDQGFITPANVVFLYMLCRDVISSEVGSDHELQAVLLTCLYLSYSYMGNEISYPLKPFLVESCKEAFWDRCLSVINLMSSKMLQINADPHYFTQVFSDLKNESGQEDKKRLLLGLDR
CDK6/CyclinD3, sequence (Q00534 whole entry, species assumed): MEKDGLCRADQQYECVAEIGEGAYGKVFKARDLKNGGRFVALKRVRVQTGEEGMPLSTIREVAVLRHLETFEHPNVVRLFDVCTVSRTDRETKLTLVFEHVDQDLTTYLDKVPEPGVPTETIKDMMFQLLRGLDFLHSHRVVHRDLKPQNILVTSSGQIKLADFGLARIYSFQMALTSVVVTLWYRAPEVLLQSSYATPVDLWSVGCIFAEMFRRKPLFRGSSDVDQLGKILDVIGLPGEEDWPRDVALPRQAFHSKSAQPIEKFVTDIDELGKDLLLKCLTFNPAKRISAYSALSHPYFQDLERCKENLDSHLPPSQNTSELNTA
CDK6/CyclinD3, sequence (P30281 whole entry partner, species assumed): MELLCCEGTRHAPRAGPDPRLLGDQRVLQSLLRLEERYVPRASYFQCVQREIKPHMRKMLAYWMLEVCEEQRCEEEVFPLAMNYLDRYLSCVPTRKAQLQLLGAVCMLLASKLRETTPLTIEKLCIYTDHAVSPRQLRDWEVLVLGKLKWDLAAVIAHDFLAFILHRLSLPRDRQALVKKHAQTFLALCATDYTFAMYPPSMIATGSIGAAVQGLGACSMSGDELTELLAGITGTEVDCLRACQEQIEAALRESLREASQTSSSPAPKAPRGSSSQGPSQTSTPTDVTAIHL
CDK4/CyclinD1, sequence (P11802 whole entry, species assumed): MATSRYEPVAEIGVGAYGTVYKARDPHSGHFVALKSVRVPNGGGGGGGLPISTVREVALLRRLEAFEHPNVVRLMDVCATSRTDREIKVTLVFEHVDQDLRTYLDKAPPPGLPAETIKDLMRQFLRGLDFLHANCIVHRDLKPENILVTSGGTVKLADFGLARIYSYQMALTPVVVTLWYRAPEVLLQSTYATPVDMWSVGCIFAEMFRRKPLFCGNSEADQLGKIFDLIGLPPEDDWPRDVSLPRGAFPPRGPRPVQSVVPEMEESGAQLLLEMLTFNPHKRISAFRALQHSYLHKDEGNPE
CDK4/CyclinD1, sequence (P24385 whole entry partner, species assumed): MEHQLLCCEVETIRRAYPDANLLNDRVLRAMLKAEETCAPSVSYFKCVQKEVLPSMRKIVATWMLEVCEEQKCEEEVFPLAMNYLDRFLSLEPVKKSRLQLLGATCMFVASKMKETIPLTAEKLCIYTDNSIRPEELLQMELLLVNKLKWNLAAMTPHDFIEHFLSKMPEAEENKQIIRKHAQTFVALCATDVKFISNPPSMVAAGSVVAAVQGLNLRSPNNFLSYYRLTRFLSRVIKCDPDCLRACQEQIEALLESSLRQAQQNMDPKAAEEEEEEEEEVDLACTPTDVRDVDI

Structure (SMILES) | IC50 (CDK5/p35) [µM] | IC50 (CDK2/CyclinE) [µM] | IC50 (CDK5/p25) [µM] | IC50 (CDK9/CycT) [µM] | IC50 (CDK4/CyclinD1) [µM] | IC50 (CDK2/CyclinA) [µM] | IC50 (CDK6/CyclinD3) [µM] | IC50 (CDK7/CycH/MAT1) [µM] | IR protective characteristics [1] | patients requiring a dose interruption [2] [%] | patients requiring a dose reduction [2] [%]
CN1CCN(c2ccc(Nc3ncc4c(n3)N3C(CC4=O)C(=O)NCC34CCCCC4)nc2)CC1 (centres unmarked) [AAAA] | > 100 | > 100 | > 100 | > 100 | > 100 | > 100 | > 100 | > 100 |  |  | 
O=C1NC(=O)c2c1c1c3ccccc3[nH]c1c1[nH]c3cc(Br)ccc3c21 [Compound 2BrIC, 2-bromo-12,13-dihydro-5H-indolo[2,3-a]pyrrolo[3,4]carbazole-5,6-dione] |  |  |  |  |  |  |  |  | exhibited IR protective characteristics |  | 
CN1CCN(c2ccc(Nc3ncc4c(n3)N3C(CC4=O)C(=O)NCC3(C)C)nc2)CC1 (centres unmarked) [YYY] | > 100 | > 100 | > 100 | > 100 | < 10 | > 100 | 10 to 100 |  |  |  | 
CN1CCN(c2ccc(Nc3ncc4c(n3)N3CCNC(=O)C3CC4=O)nc2)CC1 (centres unmarked) [GGGG] | > 100 | > 100 | > 100 | > 100 | 10 to 100 | > 100 | 10 to 100 | > 100 |  |  | 
CN1CCN(c2ccc(Nc3ncc4c(n3)N3C(CC4=O)C(=O)NCC34CCCC4)nc2)CC1 (centres unmarked) [CCCC] | > 100 | > 100 | > 100 | > 100 | > 100 | > 100 | > 100 | > 100 |  |  | 
CN1CCN(c2ccc(Nc3ncc4c(n3)N3C(CC4)C(=O)NCC3(C)C)nc2)CC1 (centres unmarked) [ZZZ] | > 100 | > 100 | > 100 | > 100 | > 100 | > 100 | > 100 |  |  |  | 
CN1CCN(c2ccc(Nc3ncc4c(n3)N3C(CC4)C(=O)NCC34CCCCC4)nc2)CC1 (centres unmarked) [BBBB] | > 100 | > 100 | > 100 | > 100 | 10 to 100 | 10 to 100 | 10 to 100 | > 100 |  |  | 
CC(=O)c1c(C)c2cnc(Nc3ccc(N4CCNCC4)cn3)nc2n(C2CCCC2)c1=O [PD0332991, 6-acetyl-8-cyclopentyl-5-methyl-2-(5-piperazin-1-yl-pyridin-2-ylammino)-8H-pyrido-[2,3-d]-pyrimidin-7-one] |  |  |  |  |  |  |  |  | exhibited IR protective characteristics | 71 | 35
